What was measured:
AhR [1] = tested on: AhR; parameters: method as in Jinno et al., 2006; conditions: ref Jinno et al., 2006, read-out: reporter assay EC50; cited from earlier work
AhR [2] = tested on: AhR; parameters: method as in Nguyen and Bradfield, 2008; Mitchell and Elferink, 2009; conditions: ref Nguyen and Bradfield, 2008, Mitchell and Elferink, 2009; cited from earlier work
[3] = biological target: T1, aryl hydrocarbon receptor (AhR) (Homo sapiens, UniProt P35869); test: AhR luciferase reporter assay in HepG2 cells; type: cell-based
T1 construct: endogenous in cells; host or cells: HepG2
T1 sequence (P35869 11-848): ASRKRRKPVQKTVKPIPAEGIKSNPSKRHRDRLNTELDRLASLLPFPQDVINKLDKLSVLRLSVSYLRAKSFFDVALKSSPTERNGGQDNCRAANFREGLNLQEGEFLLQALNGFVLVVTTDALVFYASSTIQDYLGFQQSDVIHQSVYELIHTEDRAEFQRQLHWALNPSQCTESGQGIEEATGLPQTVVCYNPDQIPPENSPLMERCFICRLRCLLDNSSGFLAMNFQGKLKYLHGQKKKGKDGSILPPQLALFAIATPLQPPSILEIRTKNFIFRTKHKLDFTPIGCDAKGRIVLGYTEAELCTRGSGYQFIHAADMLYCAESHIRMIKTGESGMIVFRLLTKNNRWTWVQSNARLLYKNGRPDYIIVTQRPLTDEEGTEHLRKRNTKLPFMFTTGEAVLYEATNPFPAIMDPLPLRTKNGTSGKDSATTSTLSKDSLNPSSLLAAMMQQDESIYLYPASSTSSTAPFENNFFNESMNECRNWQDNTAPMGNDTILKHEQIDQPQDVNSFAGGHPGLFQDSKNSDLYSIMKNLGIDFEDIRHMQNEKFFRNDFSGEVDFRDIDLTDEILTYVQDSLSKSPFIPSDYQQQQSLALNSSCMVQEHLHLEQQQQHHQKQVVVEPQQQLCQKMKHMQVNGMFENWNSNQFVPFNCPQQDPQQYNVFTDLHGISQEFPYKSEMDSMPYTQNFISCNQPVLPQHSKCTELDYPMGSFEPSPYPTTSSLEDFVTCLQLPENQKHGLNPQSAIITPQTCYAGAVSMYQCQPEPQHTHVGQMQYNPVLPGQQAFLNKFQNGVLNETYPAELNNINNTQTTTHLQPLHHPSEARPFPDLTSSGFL
Experimental: HepG2 cells were transiently transfected overnight with the construct (1200 bp portion of the human CYP1A1 promoter region containing 2 copies of the functional consensus sequence for the DRE in luc2P luciferase vector (SwitchGear Genomics cat# 114555, Menlo Park, CA) using lipofectin (Invitrogen Life Technologies) at 500 ng construct per million cells. Following transfection, the cells were replated in a 96-well format and dosed for 24 h with 0.1% (v/v) DMSO vehicle, 3-MC at 0.05, 0.1, 0.5, 1, 5, 10 μM, and A-998679 at 1.5625, 3.125, 6.25, 12.5, 25, and 50 μM. Luminescence signal was generated using the Dual-Luciferase Reporter Assay System (Promega, Madison, WI) and detected with a Tecan Genios Pro reader (Männedorf, Switzerland).

AhR [4] = biological target: T2, AhR (Homo sapiens, UniProt P35869); test: AhR nuclear translocation assay in HepG2 cells; type: cell-based; conditions: 2 μM
T2 construct: endogenous in cells; host or cells: HepG2
T2 sequence (P35869 11-848): T1 sequence (P35869 11-848)
Experimental: HepG2 cells were plated in Lab-Tek II Chamber slides (Nalgene, Rochester, NY) at a seeding density of 50,000 cells/well. The cells were allowed to attach overnight and were treated for 2 h or 24 h with 10 or 40 μM A-998679, 2 μM 3-methylchloranthrene (3-MC) as a positive control, or 0.1% (v/v) DMSO vehicle. The cells were fixed in fresh 3% paraformaldehyde solution in PBS followed by a PBS wash, and were then permeabilized for 5 min using 0.2% Triton X-100 in PBS followed by another PBS wash. The cells were then incubated with blocking buffer consisting of 1% BSA/PBS solutions and immediately incubated with a 1:50 dilution of rabbit polyclonal antibody to AhR (Abcam, Cambridge, MA catalog# 63636) for 1 h at 37°C. Cells were then washed with PBS, re-blocked for 10 min, and stained with an Alexa 546 donkey anti-rabbit secondary antibody (diluted 1:200; Invitrogen Life Technologies) for 45 min at 37°C. The cells were then washed with PBS, stained with 0.5 μM Hoescht solution for 15 min, and again washed with PBS. The chamber slides were sealed and examined under the microscope. Images were acquired with a SPOT RT SE digital camera (Diagnostic Instruments, Sterling Heights, MI) mounted on a Leica (Wetzlar, Germany) DMIRE inverted florescence microscope using a 20× objective. Image acquisition was done using Metamorph® software (Molecular Devices, Sunnyvale, CA) and percent translocation of the AhR probe was quantitated using MetaXpress (Molecular Devices). Twenty microscope fields were evaluated per well (~3000–6000 cells/well).

## C[C@]12CCc3c(ccc4cc(O)ccc34)[C@@H]1CCC2=O [equilenin]
AhR [1]
  EC50: ~10 µM

## Clc1cc2c(cc1Cl)Oc1cc(Cl)c(Cl)cc1O2 [TCDD, 2,3,7,8-Tetrachlorodibenzo-p-dioxin]
AhR [2]
  binding EC50: ~ pM to nM range

## Cc1ccc2cc3c(ccc4ccccc43)c3c2c1CC3 [3MC, 3-methylcholanthrene, reference compound]
[3]; luciferase reporter
  potency to activate AhR relative to A-998679: ~ 8 fold
[3]; luciferase reporter with human DRE construct, 24 h, read-out: EC50, activation of AhR signaling
  EC50: 2100 nM
[3]; luciferase reporter, 24 h
  maximal increase over vehicle: 97 fold
AhR [4]; 2 h, vehicle 15.6
  AhR nuclear staining (% positive cells) 2 h: 26.3 % positive cells
AhR [4]; 24 h, vehicle 3.4
  AhR nuclear staining (% positive cells) 24 h: 11.1 % positive cells
